Measured values taken from patent US20260274832A1, “COMPOUNDS AND THEIR USE IN TREATING CANCER” (ASTRAZENECA AB, priority 2023, published 2026).

Columns and labels:
[1] = target: T1, AR (L702H) in LNCaP cells (Homo sapiens, UniProt P10275, L702H/T878A); assay: LNCaP Androgen Receptor L702H Imaging Assay (LNCaP cells engineered by CRISPR/Cas9); type: cell-based; details: LNCaP cells with AR L702H mutation, 24 h incubation; for DC50: concentration giving 50% of maximum degradation of AR (L702H) per curve fit; for Dmax: LNCaP, maximum degradation observed, normalized as % of positive control
T1 construct: engineered to introduce the mutation L702H into the AR gene using CRISPR/Cas9; endogenous in cells; host or cells: LNCaP cells edited by CRISPR/Cas9 at the AR gene
T1 sequence (P10275 whole entry L702H/T878A): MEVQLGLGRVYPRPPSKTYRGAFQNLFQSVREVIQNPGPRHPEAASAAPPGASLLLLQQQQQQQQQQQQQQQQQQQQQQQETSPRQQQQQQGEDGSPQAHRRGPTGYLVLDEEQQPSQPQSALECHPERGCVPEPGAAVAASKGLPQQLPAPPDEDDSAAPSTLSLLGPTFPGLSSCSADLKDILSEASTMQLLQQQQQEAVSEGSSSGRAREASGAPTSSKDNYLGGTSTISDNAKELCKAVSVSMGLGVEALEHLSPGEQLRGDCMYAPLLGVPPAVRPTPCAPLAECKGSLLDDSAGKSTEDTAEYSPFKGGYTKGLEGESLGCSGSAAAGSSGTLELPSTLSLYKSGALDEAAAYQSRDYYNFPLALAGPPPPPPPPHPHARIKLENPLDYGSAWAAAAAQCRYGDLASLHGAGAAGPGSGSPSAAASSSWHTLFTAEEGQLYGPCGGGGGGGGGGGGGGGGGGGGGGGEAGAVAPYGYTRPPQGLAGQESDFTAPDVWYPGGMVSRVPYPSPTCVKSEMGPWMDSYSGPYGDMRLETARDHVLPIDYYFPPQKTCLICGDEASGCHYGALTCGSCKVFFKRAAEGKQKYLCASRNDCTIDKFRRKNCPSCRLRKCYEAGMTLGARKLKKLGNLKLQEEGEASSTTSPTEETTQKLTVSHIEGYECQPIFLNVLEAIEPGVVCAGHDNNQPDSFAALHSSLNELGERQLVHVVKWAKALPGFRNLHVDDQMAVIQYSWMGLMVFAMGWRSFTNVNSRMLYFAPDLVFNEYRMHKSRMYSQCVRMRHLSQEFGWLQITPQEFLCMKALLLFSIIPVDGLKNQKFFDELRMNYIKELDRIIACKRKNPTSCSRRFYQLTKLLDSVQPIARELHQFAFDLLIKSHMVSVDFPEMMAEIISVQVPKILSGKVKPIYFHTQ
T1 sequence (Q96SW2 whole entry partner): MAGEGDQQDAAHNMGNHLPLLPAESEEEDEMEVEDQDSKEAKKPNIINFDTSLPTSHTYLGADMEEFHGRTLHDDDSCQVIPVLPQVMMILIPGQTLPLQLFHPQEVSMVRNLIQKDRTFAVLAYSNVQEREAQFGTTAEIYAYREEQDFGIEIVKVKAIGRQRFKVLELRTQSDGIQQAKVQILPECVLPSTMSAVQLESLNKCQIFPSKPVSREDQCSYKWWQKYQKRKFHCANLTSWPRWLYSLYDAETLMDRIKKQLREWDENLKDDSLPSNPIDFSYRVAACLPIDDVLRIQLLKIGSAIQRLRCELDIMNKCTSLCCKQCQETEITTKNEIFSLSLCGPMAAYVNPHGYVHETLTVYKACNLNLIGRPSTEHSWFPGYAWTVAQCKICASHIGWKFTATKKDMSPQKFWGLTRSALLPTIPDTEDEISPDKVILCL
Outline: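 CRISPR-engineered LNCaP cells carrying AR L702H were treated 24 h at 37 °C with a 12-point compound dose response (0.3% DMSO), then fixed and immunostained for AR with DRAQ5 nuclear counterstain. Nuclear AR was quantified by imaging, normalized to positive control; DC50 and Dmax came from Hill or bell-shaped fits.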

[2] = target: T2, AR (AR-full length) in LNCaP cells (Homo sapiens, UniProt P10275, T878A); assay: LNCaP Androgen Receptor Imaging Assay (immunofluorescence of endogenous nuclear AR); type: cell-based; details: 24 h incubation; for DC50: concentration giving 50% of maximum degradation of AR per curve fit, single experiment or average of two or more; for Dmax: LNCaP, maximum degradation observed, normalized as % of positive control (prior art AR PROTAC at 3 μM)
T2 construct: the prostate cancer cell line LNCaP (expressing AR-full length); endogenous in cells; host or cells: LNCaP
T2 sequence (P10275 whole entry T878A): as the sequence (P10275 whole entry L702H/T878A) above, with H702L counted along it
T2 sequence (Q96SW2 whole entry partner): as the sequence (Q96SW2 whole entry partner) above
Outline: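 LNCaP cells (12,000/well) received a 12-point compound dose series (0.3% DMSO) for 24 h at 37° C., then were PFA-fixed and stained for AR (AR441) and nuclei (DRAQ5). Nuclear AR was quantified by imaging, normalized to a 3 μM AR PROTAC control; DC50 and Dmax came from Hill/bell curve fits.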

SMILES | DC50 [1] | Dmax [1] | DC50 [2] | Dmax [2]
COc1nc(N2CCN(CC3CCN(c4ccc([C@@H]5CCCN(c6ccc(Cl)c7c(C#N)c[nH]c67)C5)cc4)CC3)CC2)cc2c1C(=O)N(C1CCC(=O)NC1=O)C2 (stereo partly drawn) [Example 38, 4-Chloro-7-[(3S)-3-{4-[4-({4-[2-(2,6-dioxopiperidin-3-yl)-4-methoxy-3-oxo-2,3-dihydro-1H-pyrrolo[3,4-c]pyridin-6-yl]piperazin-1-yl}methyl)piperidin-1-yl]phenyl}piperidin-1-yl]-1H-indole-3-carbonitrile] | 12 nM | 95% | 9 nM | 97%
COc1cc(N2CCN(CC3CCN(c4ccc(C5CCN(c6ccc(C)c7c(C#N)c[nH]c67)CC5)c(F)c4)CC3)CC2)cc2c1C(=O)N(C1CCC(=O)NC1=O)C2 (centres unmarked) [Example 41, 7-(4-{4-[4-({4-[2-(2,6-Dioxopiperidin-3-yl)-7-methoxy-1-oxo-2,3-dihydro-1H-isoindol-5-yl]piperazin-1-yl}methyl)piperidin-1-yl]-2-fluorophenyl}piperidin-1-yl)-4-methyl-1H-indole-3-carbonitrile] | 29 nM | 95% | 17 nM | 98%
Cc1ccc(N2CCC(c3ccc(N4CCC(CN5CCC(n6ccc7c(N8CCC(=O)NC8=O)cccc76)CC5)CC4)cc3F)CC2)c2[nH]cc(C#N)c12 [Example 42, 7-(4-{4-[4-({4-[4-(2,4-Dioxo-1,3-diazinan-1-yl)-1H-indol-1-yl]piperidin-1-yl}methyl)piperidin-1-yl]-2-fluorophenyl}piperidin-1-yl)-4-methyl-1H-indole-3-carbonitrile] | 62 nM | 107% | 29 nM | 101%
COc1cc(N2CCN(CC3CCN(c4ccc(C5CCN(c6ccc(C)c7c(C#N)c[nH]c67)CC5)c(F)c4)CC3)CC2)cc2c1C(=O)N(C1CCC(=O)NC1=O)C2=O (centres unmarked) [Example 43, 7-(4-{4-[4-({4-[2-(2,6-Dioxopiperidin-3-yl)-7-methoxy-1,3-dioxo-2,3-dihydro-1H-isoindol-5-yl]piperazin-1-yl}methyl)piperidin-1-yl]-2-fluorophenyl}piperidin-1-yl)-4-methyl-1H-indole-3-carbonitrile] | 160 nM | 97% | 73 nM | 94%
N#Cc1c[nH]c2c(N3CCC(c4ccc(OCCCCN5CCN(c6ccc7c(c6)CN(C6CCC(=O)NC6=O)C7=O)CC5)cc4)CC3)ccc(F)c12 (centres unmarked) [Example 44, 7-{4-[4-(4-{4-[2-(2,6-Dioxopiperidin-3-yl)-1-oxo-2,3-dihydro-1H-isoindol-5-yl]piperazin-1-yl}butoxy)phenyl]piperidin-1-yl}-4-fluoro-1H-indole-3-carbonitrile] | 2 nM | 96% | 4 nM | 95%
N#Cc1c[nH]c2c(N3CCC(c4ccc(OCCCCN5CCN(c6ccc7c(c6)CN(C6CCC(=O)NC6=O)C7=O)CC5)cc4)CC3)ccc(Cl)c12 (centres unmarked) [Example 45] | 6 nM | 95% | 3 nM | 96%
N#Cc1c[nH]c2c(N3CCC(c4ccc(OCCCCN5CCC(n6ccc7c(N8CCC(=O)NC8=O)cccc76)CC5)cc4)CC3)ccc(Cl)c12 [Example 46, 4-Chloro-7-{4-[4-(4-{4-[4-(2,4-dioxo-1,3-diazinan-1-yl)-1H-indol-1-yl]piperidin-1-yl}butoxy)phenyl]piperidin-1-yl}-1H-indole-3-carbonitrile] | 12 nM | 98% | 4 nM | 101%
COc1nc(N2CCN(CC3CCN(c4ccc([C@H]5CCCN(c6ccc(Cl)c7c(C#N)c[nH]c67)C5)cc4)CC3)CC2)cc2c1C(=O)N(C1CCC(=O)NC1=O)C2 (stereo partly drawn) [Example 47, 4-Chloro-7-[(3R)-3-{4-[4-({4-[2-(2,6-dioxopiperidin-3-yl)-4-methoxy-3-oxo-2,3-dihydro-1H-pyrrolo[3,4-c]pyridin-6-yl]piperazin-1-yl}methyl)piperidin-1-yl]phenyl}piperidin-1-yl]-1H-indole-3-carbonitrile] | 7 nM | 100% | 7 nM | 84%
COc1cc(N2CCN(CCCCOc3ccc(C4CCN(c5ccc(C)c6c(C#N)c[nH]c56)CC4)cc3)CC2)cc2c1C(=O)N(C1CCC(=O)NC1=O)C2=O (centres unmarked) [Example 48, 7-{4-[4-(4-{4-[2-(2,6-Dioxopiperidin-3-yl)-7-methoxy-1,3-dioxo-2,3-dihydro-1H-isoindol-5-yl]piperazin-1-yl}butoxy)phenyl]piperidin-1-yl}-4-methyl-1H-indole-3-carbonitrile] | 359 nM | 99% | 57 nM | 97%
COc1cc(N2CCN(CC3CCN(c4ccc(C5CCN(c6ccc(Cl)c7c(C#N)c[nH]c67)CC5)cc4)CC3)CC2)cc2c1C(=O)N(C1CCC(=O)NC1=O)C2=O (centres unmarked) [Example 49, 4-Chloro-7-(4-{4-[4-({4-[2-(2,6-dioxopiperidin-3-yl)-7-methoxy-1,3-dioxo-2,3-dihydro-1H-isoindol-5-yl]piperazin-1-yl}methyl)piperidin-1-yl]phenyl}piperidin-1-yl)-1H-indole-3-carbonitrile] | 45 nM | 97% | 33 nM | 91%
Cc1ccc(N2CCC(c3ccc(OCCCCN4CCN(c5cc6c(cc5F)C(=O)N(C5CCC(=O)NC5=O)C6=O)CC4)cc3)CC2)c2[nH]cc(C#N)c12 (centres unmarked) [Example 50, 7-{4-[4-(4-{4-[2-(2,6-Dioxopiperidin-3-yl)-6-fluoro-1,3-dioxo-2,3-dihydro-1H-isoindol-5-yl]piperazin-1-yl}butoxy)phenyl]piperidin-1-yl}-4-methyl-1H-indole-3-carbonitrile] | 769 nM | 94% | 137 nM | 98%
N#Cc1c[nH]c2c(N3CCC(c4ccc(N5CCC(CN6CCN(c7cc8c(cc7F)C(=O)N(C7CCC(=O)NC7=O)C8=O)CC6)CC5)cc4)CC3)ccc(Cl)c12 (centres unmarked) [Example 51, 4-Chloro-7-(4-{4-[4-({4-[2-(2,6-dioxopiperidin-3-yl)-6-fluoro-1,3-dioxo-2,3-dihydro-1H-isoindol-5-yl]piperazin-1-yl}methyl)piperidin-1-yl]phenyl}piperidin-1-yl)-1H-indole-3-carbonitrile] | 71 nM | 96% | 37 nM | 101%
N#Cc1c[nH]c2c(N3CCC(c4ccc(N5CCC(CN6CCN(c7cc8c(cc7F)C(=O)N(C7CCC(=O)NC7=O)C8=O)CC6)CC5)cc4)CC3)ccc(F)c12 (centres unmarked) [Example 52, 7-(4-{4-[4-({4-[2-(2,6-Dioxopiperidin-3-yl)-6-fluoro-1,3-dioxo-2,3-dihydro-1H-isoindol-5-yl]piperazin-1-yl}methyl)piperidin-1-yl]phenyl}piperidin-1-yl)-4-fluoro-1H-indole-3-carbonitrile] | 52 nM | 97% | 62 nM | 93%
N#Cc1c[nH]c2c(N3CCC[C@@H](c4ccc(N5CCC(CN6CCN(c7cc8c(cc7F)C(=O)N(C7CCC(=O)NC7=O)C8=O)CC6)CC5)cc4)C3)ccc(Cl)c12 (stereo partly drawn) [Example 53, 4-Chloro-7-[(3S)-3-{4-[4-({4-[2-(2,6-dioxopiperidin-3-yl)-6-fluoro-1,3-dioxo-2,3-dihydro-1H-isoindol-5-yl]piperazin-1-yl}methyl)piperidin-1-yl]phenyl}piperidin-1-yl]-1H-indole-3-carbonitrile] | 78 nM | 103% | 30 nM | 99%
N#Cc1c[nH]c2c(N3CCC[C@H](c4ccc(N5CCC(CN6CCN(c7cc8c(cc7F)C(=O)N(C7CCC(=O)NC7=O)C8=O)CC6)CC5)cc4)C3)ccc(Cl)c12 (stereo partly drawn) [Example 54, 4-Chloro-7-[(3R)-3-{4-[4-({4-[2-(2,6-dioxopiperidin-3-yl)-6-fluoro-1,3-dioxo-2,3-dihydro-1H-isoindol-5-yl]piperazin-1-yl}methyl)piperidin-1-yl]phenyl}piperidin-1-yl]-1H-indole-3-carbonitrile] | 52 nM | 97% | 36 nM | 77%
N#Cc1c[nH]c2c(N3CCC(c4ccc(N5CCC(CN6CCN(c7ccc8c(c7)C(=O)N(C7CCC(=O)NC7=O)C8=O)CC6)CC5)cc4)CC3)ccc(Cl)c12 (centres unmarked) [Example 55, 4-Chloro-7-(4-{4-[4-({4-[2-(2,6-dioxopiperidin-3-yl)-1,3-dioxo-2,3-dihydro-1H-isoindol-5-yl]piperazin-1-yl}methyl)piperidin-1-yl]phenyl}piperidin-1-yl)-1H-indole-3-carbonitrile] | 34 nM | 103% | 33 nM | 99%
Cc1ccc(N2CCC(c3ccc(OCCCCN4CCN(c5ccc6c(c5)C(=O)N(C5CCC(=O)NC5=O)C6=O)CC4)cc3)CC2)c2[nH]cc(C#N)c12 (centres unmarked) [Example 56, 7-{4-[4-(4-{4-[2-(2,6-Dioxopiperidin-3-yl)-1,3-dioxo-2,3-dihydro-1H-isoindol-5-yl]piperazin-1-yl}butoxy)phenyl]piperidin-1-yl}-4-methyl-1H-indole-3-carbonitrile] | 357 nM | 94% | 61 nM | 101%
